Source: patent US20240247015A1, “PHOSPHORUS DERIVATIVES AS NOVEL SOS1 INHIBITORS” (BAYER AKTIENGESELLSCHAFT, priority 2021, published 2024)

These compounds were tested against interaction of human SOS1 (SOS1) with human K-RasG12C (Homo sapiens (Human), UniProt Q07889) (assay: Biochemical assay: hK-RasG12C interaction assay with hSOS1 (HTRF)). Conditions: GST-hK-RasG12C with His-hSOS1, 60 min incubation at 20° C., mean, read-out: K-RasG12C - SOS interaction assay IC50 (mean).
Type: binding
Summary of the method: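 Compounds, duplicates at 11 concentrations from 0.073 nM to 20 µM, were preincubated 2 min with 10 nM GST-hK-RasG12C, then 20 nM His-hSOS1 was added, all at 20 °C. After 60 min, 665/620 nm HTRF ratio normalized to DMSO and SOS1-free controls; IC50 by 4-parameter fit.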

Chain of interaction of human SOS1 (SOS1) with human K-RasG12C (Q07889 564-1049 limits assumed): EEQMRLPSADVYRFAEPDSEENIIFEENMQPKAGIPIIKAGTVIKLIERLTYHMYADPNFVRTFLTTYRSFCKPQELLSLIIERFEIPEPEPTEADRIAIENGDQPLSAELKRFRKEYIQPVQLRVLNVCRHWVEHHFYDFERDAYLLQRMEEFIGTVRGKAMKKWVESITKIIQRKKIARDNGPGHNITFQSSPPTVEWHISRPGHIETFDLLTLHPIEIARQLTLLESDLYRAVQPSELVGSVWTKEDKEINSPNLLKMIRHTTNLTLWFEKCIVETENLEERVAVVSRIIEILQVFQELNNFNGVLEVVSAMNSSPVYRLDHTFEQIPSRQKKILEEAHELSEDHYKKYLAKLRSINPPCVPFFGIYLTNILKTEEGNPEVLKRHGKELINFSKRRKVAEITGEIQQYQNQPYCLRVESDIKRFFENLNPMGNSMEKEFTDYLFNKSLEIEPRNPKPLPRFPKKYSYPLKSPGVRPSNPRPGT

Row | IC50 | Compound
1 | 12.7 nM | Cc1nc(N[C@H](C)c2cccc(C(F)(F)F)c2C)c2cc(P3(=O)CCN(C(=O)C4(C#N)CC4)CC3)ncc2n1 [Example 167, 1-{4-[2-methyl-4-{{(1R)-1-[2-methyl-3-(trifluoromethyl)phenyl]ethyl}amino)pyrido[3,4-d]pyrimidin-6-yl]-4-oxo-1,4lambda^5-azaphosphinane-1-carbonyl}cyclopropane-1-carbonitrile]
2 | 12 nM | Cc1nc(N[C@H](C)c2cccc(C(F)(F)F)c2C)c2cc(P3(=O)CCN(C(=O)C4(F)CC4)CC3)ncc2n1 [Example 168, 1-(1-fluorocyclopropane-1-carbonyl)-4-[2-methyl-4-({(1R)-1-[2-methyl-3-(trifluoromethyl)phenyl]ethyl}amino)pyrido[3,4-d]pyrimidin-6-yl]-1,4lambda^5-azaphosphinan-4-one]
3 | 9.55 nM | Cc1nc(N[C@H](C)c2cccc(C(F)(F)F)c2C)c2cc(P3(=O)CCN(C(=O)C4(C(F)F)CC4)CC3)ncc2n1 [Example 169, 1-[1-(difluoromethyl)cyclopropane-1-carbonyl]-4-[2-methyl-4-({(1R)-1-[2-methyl-3-(trifluoromethyl)phenyl]ethyl}amino)pyrido[3,4-d]pyrimidin-6-yl]-1,4lambda^5-azaphosphinan-4-one]
4 | 11.3 nM | Cc1nc(N[C@H](C)c2cccc(C(F)(F)F)c2C)c2cc(P3(=O)CCN(C(=O)C4CC(F)(F)C4)CC3)ncc2n1 [Example 170, 1-(3,3-difluorocyclobutane-1-carbonyl)-4-[2-methyl-4-({(1R)-1-[2-methyl-3-(trifluoromethyl)phenyl]ethyl}amino)pyrido[3,4-d]pyrimidin-6-yl]-1,4lambda^5-azaphosphinan-4-one]
5 | 6.76 nM | Cc1nc(N[C@H](C)c2cccc(C(F)(F)F)c2C)c2cc(P3(=O)CCN(C(=O)C(C)C)CC3)ncc2n1 [Example 171, 4-[2-methyl-4-{{(1R)-1-[2-methyl-3-(trifluoromethyl)phenyl]ethyl}amino)pyrido[3,4-d]pyrimidin-6-yl]-1-(2-methylpropanoyl)-1,4lambda^5-azaphosphinan-4-one]
6 | 4.78 nM | Cc1nc(N[C@H](C)c2cccc(C(F)(F)C(C)(C)O)c2F)c2cc(P3(=O)CCN(C(=O)C4CC4)CC3)ncc2n1 [Example 172, 1-(cyclopropanecarbonyl)-4-[4-{{(1R)-1-[3-(1,1-difluoro-2-hydroxy-2-methylpropyl)-2-fluorophenyl]ethyl}amino)-2-methylpyrido[3,4-d]pyrimidin-6-yl]-1,4lambda^5-azaphosphinan-4-one]
7 | 5.62 nM | Cc1nc(N[C@H](C)c2cccc(C(F)(F)F)c2C)c2cc(P3(=O)CCN(C(=O)C4(O)CC4)CC3)ncc2n1 [Example 173, 1-(1-hydroxycyclopropane-1-carbonyl)-4-[2-methyl-4-({(1R)-1-[2-methyl-3-(trifluoromethyl)phenyl]ethyl}amino)pyrido[3,4-d]pyrimidin-6-yl]-1,4lambda^5-azaphosphinan-4-one]
8 | 3.89 nM | Cc1nc(N[C@H](C)c2cccc(C(F)(F)F)c2C)c2cc(P3(=O)CCN(C(=O)C4CC4)CC3)ncc2n1 [Example 174, 1-(cyclopropanecarbonyl)-4-[2-methyl-4-({(1R)-1-[2-methyl-3-(trifluoromethyl)phenyl]ethyl}amino)pyrido[3,4-d]pyrimidin-6-yl]-1,4lambda^5-azaphosphinan-4-one]
9 | 9.07 nM | Cc1nc(N[C@H](C)c2cccc(C(F)(F)F)c2C)c2cc(P3(=O)CCN(C(=O)c4cnn(C)c4)CC3)ncc2n1 [Example 175, 4-[2-methyl-4-{{(1R)-1-[2-methyl-3-(trifluoromethyl)phenyl]ethyl}amino)pyrido[3,4-d]pyrimidin-6-yl]-1-(1-methyl-1H-pyrazole-4-carbonyl)-1,4lambda^5-azaphosphinan-4-one]
10 | 6.82 nM | CO[C@@H](C)C(=O)N1CCP(=O)(c2cc3c(N[C@H](C)c4cccc(C(F)(F)F)c4C)nc(C)nc3cn2)CC1 [Example 176, 1-[(2S)-2-methoxypropanoyl]-4-[2-methyl-4-{{(1R)-1-[2-methyl-3-(trifluoromethyl)phenyl]ethyl}amino)pyrido[3,4-d]pyrimidin-6-yl]-1,4lambda^5-azaphosphinan-4-one]
11 | 5.01 nM | COCC(=O)N1CCP(=O)(c2cc3c(N[C@H](C)c4cccc(C(F)(F)F)c4C)nc(C)nc3cn2)CC1 [Example 177, 1-(methoxyacetyl)-4-[2-methyl-4-({(1R)-1-[2-methyl-3-(trifluoromethyl)phenyl]ethyl}amino)pyrido[3,4-d]pyrimidin-6-yl]-1,4lambda^5-azaphosphinan-4-one]
12 | 7.94 nM | Cc1nc(N[C@H](C)c2cccc(C(F)(F)F)c2C)c2cc(P3(=O)CCN(C(=O)C4(CO)CC4)CC3)ncc2n1 [Example 178, 1-[1-(hydroxymethyl)cyclopropane-1-carbonyl]-4-[2-methyl-4-{{(1R)-1-[2-methyl-3-(trifluoromethyl)phenyl]ethyl}amino)pyrido[3,4-d]pyrimidin-6-yl]-1,4lambda^5-azaphosphinan-4-one]
13 | 3.68 nM | Cc1nc(N[C@H](C)c2cccc(C(F)(F)CNS(C)(=O)=O)c2F)c2cc(P3(=O)CCN(C(=O)C4CC4)CC3)ncc2n1 [Example 179, N-(2-{3-[(1R)-1-({6-[1-(cyclopropanecarbonyl)-4-oxo-1,4lambda^5-azaphosphinan-4-yl]-2-methylpyrido[3,4-d]pyrimidin-4-yl}amino)ethyl]-2-fluorophenyl}-2,2-difluoroethyl)methanesulfonamide]
14 | 4.6 nM | CC(=O)NCC(F)(F)c1cccc([C@@H](C)Nc2nc(C)nc3cnc(P4(=O)CCN(C(=O)C5CC5)CC4)cc23)c1F [Example 180, N-(2-{3-[(1R)-1-({6-[1-(cyclopropanecarbonyl)-4-oxo-1,4lambda^5-azaphosphinan-4-yl]-2-methylpyrido[3,4-d]pyrimidin-4-yl}amino)ethyl]-2-fluorophenyl}-2,2-difluoroethyl)acetamide]
15 | 2.95 nM | Cc1nc(N[C@H](C)c2cccc(C(F)(F)CN(C)S(C)(=O)=O)c2F)c2cc(P3(=O)CCN(C(=O)C4CC4)CC3)ncc2n1 [Example 181, N-(2-{3-[(1R)-1-({6-[1-(cyclopropanecarbonyl)-4-oxo-1,4lambda^5-azaphosphinan-4-yl]-2-methylpyrido[3,4-d]pyrimidin-4-yl}amino)ethyl]-2-fluorophenyl}-2,2-difluoroethyl)-N-methylmethanesulfonamide]
16 | 3.95 nM | CC(=O)N(C)CC(F)(F)c1cccc([C@@H](C)Nc2nc(C)nc3cnc(P4(=O)CCN(C(=O)C5CC5)CC4)cc23)c1F [Example 182, N-(2-{3-[(1R)-1-({6-[1-(cyclopropanecarbonyl)-4-oxo-1,4lambda^5-azaphosphinan-4-yl]-2-methylpyrido[3,4-d]pyrimidin-4-yl}amino)ethyl]-2-fluorophenyl}-2,2-difluoroethyl)-N-methylacetamide]
17 | 8.38 nM | Cc1nc(N[C@H](C)c2cccc(C(F)F)c2F)c2cc(P3(=O)CCN(C(N)=O)CC3)ncc2n1 [Example 183]
18 | 5.62 nM | Cc1nc(N[C@H](C)c2cccc(C(F)(F)F)c2C)c2cc(P3(=O)CCN(C(=O)NC4CC4)CC3)ncc2n1 [Example 184]

Row | IC50 | Compound
19 | 3.86 nM | Cc1nc(N[C@H](C)c2cccc(C(F)(F)F)c2C)c2cc(P3(=O)CCN(C(=O)NCC(F)F)CC3)ncc2n1 [Example 185]
20 | 4.71 nM | Cc1nc(N[C@H](C)c2cccc(C(F)(F)F)c2C)c2cc(P3(=O)CCN(C(N)=O)CC3)ncc2n1 [Example 186]
21 | 12 nM | CCOC(=O)N1CCP(=O)(c2cc3c(N[C@H](C)c4cccc(C(F)F)c4F)nc(C)nc3cn2)CC1 [Example 187]
22 | 6.34 nM | Cc1nc(N[C@H](C)c2cccc(C(F)(F)F)c2C)c2cc(P3(=O)CCN(C(=O)N(C)C)CC3)ncc2n1 [Example 188]
23 | 20.6 nM | CCOC(=O)N1CCP(=O)(c2cc3c(N[C@H](C)c4cccc(C(F)(F)F)c4C)nc(C)nc3cn2)CC1 [Example 189]
24 | 5.9 nM | CC(=O)N1CCP(=O)(c2cc3c(N[C@H](C)c4cccc(C(F)F)c4C)nc(C)nc3cn2)CC1 [Example 190]
25 | 8.09 nM | CC(=O)N1CCP(=O)(c2cc3c(N[C@H](C)c4cccc(C(F)(F)F)c4Cl)nc(C)nc3cn2)CC1 [Example 191]
26 | 11.7 nM | CC(=O)N1CCP(=O)(c2cc3c(N[C@H](C)c4cccc(C(F)(F)F)c4)nc(C)nc3cn2)CC1 [Example 192]
27 | 4.1 nM | CC(=O)N1CCP(=O)(c2cc3c(N[C@H](C)c4cccc(C(F)(F)C(C)(C)O)c4F)nc(C)nc3cn2)CC1 [Example 193]
28 | 12.1 nM | CC(=O)N1CCP(=O)(c2cc3c(N[C@H](C)c4cccc(C(F)(F)F)c4C)nc(C(F)(F)F)nc3cn2)CC1 [Example 194]
29 | 6.56 nM | CC(=O)N1CCP(=O)(c2cc3c(N[C@H](C)c4cccc(C(F)(F)F)c4C)nc(C(F)F)nc3cn2)CC1 [Example 195]
30 | 2.38 nM | CC(=O)N1CCP(=O)(c2cc3c(N[C@H](C)c4cccc(C(F)(F)F)c4C)nc(Cl)nc3cn2)CC1 [Example 196]
31 | 7.4 nM | CC(=O)N1CCP(=O)(c2ccc3nc(C)nc(N[C@H](C)c4cccc(C(F)(F)F)c4C)c3c2)CC1 [Example 197]
32 | 4.61 nM | CC(=O)NCC(F)(F)c1cccc([C@@H](C)Nc2nc(C)nc3cnc(P4(=O)CCN(C(C)=O)CC4)cc23)c1F [Example 199]
33 | 3.95 nM | CC(=O)N1CCP(=O)(c2cc3c(N[C@H](C)c4cccc(C(F)(F)CN(C)S(C)(=O)=O)c4F)nc(C)nc3cn2)CC1 [Example 200]
34 | 5.81 nM | CC(=O)N(C)CC(F)(F)c1cccc([C@@H](C)Nc2nc(C)nc3cnc(P4(=O)CCN(C(C)=O)CC4)cc23)c1F [Example 201]
35 | 3.89 nM | CC(=O)N1CCP(=O)(c2cc3c(N[C@H](C)c4cccc(C(F)(F)CN(C(C)=O)C5CC5)c4F)nc(C)nc3cn2)CC1 [Example 202]
36 | 5.65 nM | Cc1nc(N[C@H](C)c2cccc(C(F)(F)F)c2C)c2cc(P3(=O)CCN(C(=O)C(F)F)CC3)ncc2n1 [Example 203]
